Calls of active or inactive are those of the source.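 How the source made its calls: active means compounds giving half or more protection of infected cells from virus-caused growth loss, again on retest; inactive means the rest.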 Where a SMILES comes first, the peptide text is derived from it.
Tested on: CEM cells HIV-1 protection, formazan growth assay
Assay: NCI AIDS Antiviral Assay
Conditions: for IC50: measured here: growth of uninfected CEM cells
How it was run: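 Human CEM cells, uninfected and HIV-1-infected, received five drug concentrations, and growth was read by soluble formazan assay. Compounds giving at least 50% protection were retested; reproducible 100% protection defined confirmed active.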

| SMILES | EC50 | IC50 | outcome |
| --- | --- | --- | --- |
| [Br][Sn]12[c]3ccccc3CN(Cc3cccc[c]31)Cc1cccc[c]12 | > 200 µM | > 200 µM |  |
| Cc1ccc(S(=O)(=O)NC(CCC(=O)NNc2ccccc2)C(=O)NNc2ccccc2)cc1 (centres undefined) | > 200 µM |  |  |
| CCOC(=O)c1cnc(SCc2ccc(Cl)c(Cl)c2)nc1N1CC1C (centres undefined) | > 200 µM | 6.46 µM |  |
| COC(=O)C(=O)CC(=O)CCn1ncc(Cl)c(Cl)c1=O | > 776 µM | 4.07 µM |  |
| CCCCCCCCCC=C(c1cc(Br)c(OC)c(C(=O)OC)c1)c1cc(Br)c(OC)c(C(=O)OC)c1 | > 29.5 µM | > 29.5 µM |  |
| CCCCOC(=S)SSC(=S)NCCNC(=S)SSC(=S)OCCCC | > 200 µM | 55 µM |  |
| O=C(Nc1nc2ccccc2n1Cc1ccc(Cl)cc1)NC12CC3CC(CC(C3)C1)C2 | > 200 µM | > 200 µM |  |
| COC(=O)c1c(C)cccc1C1CN=NC12Cc1ccc(C)c(C)c1C2=O (centres undefined) | > 200 µM | 15.1 µM |  |
| Cc1ccc(S(=O)(=O)OC(F)(F)C(F)(F)F)cc1 | > 234 µM | > 234 µM |  |
| O=C1c2cccc3cc([N+](=O)[O-])cc(c23)C(=O)N1CCc1ccccn1 | > 200 µM | 4.37 µM |  |
| Cn1cc2ccccc2c1-c1nc(F)nc(Oc2ccc3c(c2)CC[C@@H]2C3CC[C@@]3(C)C2CC[C@@H]3O)n1 (some centres undefined) | > 5.5 µM | > 5.5 µM |  |
| CC(C)(C)C(=O)OCOP(=O)(OCOC(=O)C(C)(C)C)OCC1OC(N2C=CC(N)NC2=O)CC1F (centres undefined) | 1.12 µM | 87.1 µM |  |
| Cc1cccc2c1NC(c1c(C)[nH]c3ccccc13)C2 (centres undefined) |  |  | inactive |
| N#Cc1ccccc1NC1OCC(O)C(O)C1O (centres undefined) |  |  | inactive |
| CC(C)CN1CC(C)C(=O)NC1=O (centres undefined) |  |  | inactive |
| O=[N+]([O-])c1cc(/C=N/NS(=O)(=O)c2ccc(F)cc2)c(O)c([N+](=O)[O-])c1 | > 646 µM | 37.2 µM |  |
| O=c1[nH]c(=O)n(C2OC(CO)CC2F)cc1Cl (centres undefined) | > 186 µM | > 186 µM |  |
| CC(C)(C)OC(=O)N1C(=O)C2CCCC21 (centres undefined) | > 200 µM | > 200 µM |  |
| Cc1c(C2Cc3ccccc3N2C(=O)/C=C\C(=O)O)c2ccccc2n1C (centres undefined) | > 692 µM | 14.5 µM |  |
| C=C(C)C1Cc2c(cc3c(c2O)c(=O)c2ccccc2n3C)O1 (centres undefined) | > 200 µM | 1.17 µM |  |
| CC(=O)N=C(N=Nc1c(O)[nH]c2ccc(C)cc12)NC(C)=O | > 200 µM | 148 µM |  |
| COP1(=S)OCC(C(C)(C)C)CO1 (centres undefined) | > 57.5 µM | > 57.5 µM |  |
| O=c1c2ccccc2nc(-c2ccccc2Cl)n1NCC1(O)OCC(O)C(O)C1O (centres undefined) |  |  | inactive |

| SMILES | EC50 | IC50 | outcome |
| --- | --- | --- | --- |
| C=CCOc1cc2c(c3oc(=O)cc(CCC)c13)[C@@H](O)[C@H](C)[C@@H](C)O2 | 6.61 µM | 13.5 µM |  |
| CC(C)C(CCl)NC(=O)c1cccc(C(=O)N[C@H](CCl)C(C)C)n1 (stereo in doubt) | > 69.2 µM | > 69.2 µM |  |
| O=C1CN(N2C(=O)CSC2C23CC4CC(CC(C4)C2)C3)C(=O)CN1c1ccccc1 (centres undefined) | > 151 µM | > 151 µM |  |
| O=C1C2=C(Nc3ccccc3N2)OC1c1ccncc1 (centres undefined) | > 38 µM | > 38 µM |  |
| COC(=O)CCSSCCC(=O)OC | > 1050 µM | 182 µM |  |
| NC(=O)N/N=C(/Cc1nc2ccc(C(=O)c3ccccc3)cc2[nH]c1=O)C(=O)Nc1ccc(C(F)(F)F)cc1[N+](=O)[O-] |  |  | inactive |
| C=CC1CN(C(=O)OCC)N(C(=O)OCC)C1CCc1ccccc1 (centres undefined) | > 200 µM | 72.4 µM |  |
| O=c1scc(-c2ccc(C(F)(F)F)cc2)s1 | > 85.1 µM | > 85.1 µM |  |
| CNC(=S)c1nnsc1N | > 200 µM | 0.302 µM |  |
| CCO/C=N/C1=C(C#N)C(c2ccc(OC)c(OC)c2)c2c(-c3ccccc3)nn(-c3ccccc3)c2O1 (centres undefined) | > 100 µM | 14.1 µM |  |
| O=C(/C=C/c1ccc(OCCCCCCCCCCOc2ccc(/C=C/C(=O)c3ccc(Cl)cc3)cc2)cc1)c1ccc(Cl)cc1 | > 4.17 µM | > 4.17 µM |  |
| O=P(Nc1ccccc1)(Nc1ccccc1)Nc1ccccc1 | > 155 µM | 141 µM |  |
| COc1ccccc1C(=O)N(Cc1ccccc1)c1ccc(Cl)c(C(=O)OC(C)C)c1 | > 19.5 µM | 15.5 µM |  |
| [N-]=[N+]=NC1CC(n2ccc(=O)[nH]c2=O)OC1CO (centres undefined) | 2.88 µM | 20 µM |  |
| CCOC(=O)C(=Cc1ccc(-c2ccccc2)cc1)C(=O)OCC | > 16.2 µM | 10.5 µM |  |
| N#CCc1c(C2(c3ccncc3)OCCO2)[nH]c2ccccc12 | > 117 µM | 110 µM |  |
| CSc1nc2cc(Cl)ccc2c2c1C=NCCN2 | > 93.3 µM | 15.8 µM |  |
| COc1ccc(N/N=C(\CCN(C)C)c2ccccc2)cc1 |  |  | inactive |
| O=S1(=O)c2ccccc2-c2nccc3ccnc1c23 |  |  | inactive |
| CC(=O)[CH-]C(C)=O.CC(=O)[CH-]C(C)=O.[CH2-]CCCCCCC.[CH2-]CCCCCCC.[Sn+4] | > 47.9 µM | > 47.9 µM |  |
| CC1(C)OC(=O)C(=Cc2cccc(Cl)c2)C(=O)O1 | > 490 µM | > 200 µM |  |
| CC(C)CC(NC(=O)C(Cc1ccc(O)cc1)NC(=O)C(CO)NC(=O)C(C)NC(=O)C(CCCN=C(N)N)NC(=O)C(CCC(N)=O)NC(=O)C(NC(=O)C(N)CCC(=O)O)C(C)C)C(=O)NC(CO)C(=O)NC(CCCCN)C(=O)O (centres undefined) (H-EVQRASYLSK-OH; configuration not given here) |  |  | inactive |
| COC1(OC)CC2C(=O)CCCC21OC (centres undefined) | > 603 µM | > 603 µM |  |

| SMILES | EC50 | IC50 | outcome |
| --- | --- | --- | --- |
| S=C1NC(c2ccco2)N2C(=S)NC(c3ccco3)N12 (centres undefined) |  | > 200 µM | inactive |
| N/C(=N\N=C/c1c(O)cc(O)cc1O)NO |  |  | inactive |
| Nc1nc(Cl)c(CO)c(NCC2(CO)CC(CCc3ccccc3)C2)n1 (centres undefined) | > 20 µM | 0.129 µM |  |
| CC1C(c2ccc3c(c2)OCO3)CC(Cl)CC12C=C1OCOC1=CC2=O (centres undefined) | > 69.2 µM | 47.9 µM |  |
| CCN(CC)c1ccc(N=Nc2ccc(-c3nc4cccnc4o3)cc2)cc1 | > 19.5 µM | > 19.5 µM |  |
| N#CN1C2CCC1CC(=O)C2 | 67.6 µM | 129 µM |  |
| CC(C)NC(=O)OCCS(=O)c1c(Cl)c(Cl)nn1C (centres undefined) | > 200 µM | 33.1 µM |  |
| c1nn2cnnc2s1 |  |  | inactive |
| Cn1cc(C(=O)C[n+]2ccccc2)c2ccccc21 | > 224 µM | 81.3 µM |  |
| Brc1ccc2[nH]cc(/C=N/N3CCCCCC3)c2c1 | > 112 µM | > 112 µM |  |
| COC(=O)/C=C/CC(=O)NS(C)(=O)=O | > 200 µM | > 200 µM |  |
| Cc1cc2c(c3nocc13)C(=O)c1ccccc1C2=O |  |  | inactive |
| COc1ccc(C[C@H]2C(=O)OC[C@@H]2Cc2ccc(OC)c(OC)c2)cc1 | > 200 µM | 24 µM |  |
| COc1ccc(N=Nc2c(C)c(C#N)c(=S)n(C3OC(CO)C(O)C(O)C3O)c2C)cc1 (centres undefined) | > 200 µM | 27.5 µM |  |
| Cc1nc(-c2cc3c(ccc4ccccc43)oc2=O)cs1 | > 100 µM | 95.5 µM |  |
| CC(O)CNC(=O)C(C)Oc1ccc(OCC2CCCCC2)cc1 (centres undefined) | > 282 µM | 25.1 µM |  |
| CN1CCN(c2c(Cl)cc(Cl)c3[nH]c4ccccc4c(=O)c23)CC1 | > 2 µM | 0.977 µM |  |
| CCN(CC)c1ccc2cc(-c3csc(C)n3)c(=O)oc2c1 | > 200 µM | 10.2 µM |  |
| COc1nc2c(c(=O)[nH]1)N=C(c1ccccc1)CC(c1ccccc1)N2 (centres undefined) | > 200 µM | > 200 µM |  |
| CCCCCCCCCCCCC(CCCCCCCCCCCC)OP(=O)(O)O |  |  | inactive |
| N=C(N)C1CN(CCc2cnc[nH]2)C(=O)NC1=O (centres undefined) | > 200 µM | > 200 µM |  |
| c1ccc(C2=NCCc3cc4c(cc32)OCO4)cc1 | > 200 µM | 141 µM |  |
| Cc1cccc(C(=O)c2cccc3ccccc23)c1C(=O)O |  |  | inactive |

| SMILES | EC50 | IC50 | outcome |
| --- | --- | --- | --- |
| O=C1NC(S(=O)(=O)O)=NNC12c1ccccc1-c1ccccc12 | > 200 µM | 107 µM |  |
| CC1(C)SC(CCCCCCCCCCCNC2=NCCCCCCCCCCC2)=N[C@@H]1C(=O)O | > 67.6 µM | 38 µM |  |
| c1ccc(-c2onc3c2CCCC3)cc1 |  |  | inactive |
| Cc1ccc(-c2oc3ccccc3c(=O)c2O)cc1 | > 200 µM | 53.7 µM |  |
| CCC(C)(C)NS(=O)(=O)c1ccccc1 |  |  | inactive |
| CC1=C(C(=O)Nc2ccc(Cl)c(Cl)c2)C(c2ccc([N+](=O)[O-])cc2)C(C(=O)Nc2ccc(Cl)c(Cl)c2)=C(C)N1 | > 8.71 µM | 5.62 µM |  |
| COc1cc(NCCN2CCN(CCNc3cc(OC)cc4cccnc34)CC2)c2ncccc2c1 | > 50.1 µM | 45.7 µM |  |
| c1ccc2c(c1)sc1scc[n+]12 | > 617 µM | 12.9 µM |  |
| C/C=C/C=C\C(=O)C1c2cccc(O)c2C(=O)c2c(O)cc(C)cc21 (centres undefined) | > 21.4 µM | 3.89 µM |  |
| CCN(CC)CCCNC(=O)C1COc2cc(-c3cc(=O)c4ccccc4o3)ccc2O1 (centres undefined) |  |  | inactive |
| CCOC(=O)c1ccn2c(c1)c(C#N)c1nc3ccccc3nc12 | > 16.6 µM | > 16.6 µM |  |
| S=C1SCCS1 | > 200 µM | > 200 µM |  |
| CN(C)CC(CO)(CN(C)C)CN(C)C | > 200 µM | > 200 µM |  |
| CC(C)(C)C1=CC(=C(c2ccccc2)c2ccccc2)C=C(C(C)(C)C)C1=O | > 47.9 µM | > 47.9 µM |  |
| CC(=O)OC1CCC2(C)C(C)C(C)CCC2(O)C1O (centres undefined) | > 200 µM | 15.1 µM |  |
| Cn1c[n+](C2OC(CO)C(O)C2O)c2nc([O-])[nH]c(=O)c21 (centres undefined) | > 17.4 µM | 9.77 µM |  |
| [O-]c1on[n+]2c1Cc1ccccc1C2 | > 200 µM | > 200 µM |  |
| C=C(C)C(=O)OC1C[C@H](COC(C)=O)C2CC=C(CO)C2C2OC(=O)C(=C)[C@H]12 (some centres undefined) | > 200 µM | 9.12 µM |  |
| COC1=C(C)C(=O)C(=O)c2cccnc21 |  |  | inactive |
| Cc1ccc(N=C2SC(c3ccc(C)cc3)(c3ccc(C)cc3)c3ccccc32)cc1 | > 200 µM | > 200 µM |  |
| COC(=O)[C@@]12C(=O)C(C)C(=O)[C@]1(C)C(C)=C[C@H]1[C@]3(C=O)CC[C@H](OC(C)=O)C(C)(C)[C@H]3CC[C@@]12C (some centres undefined) | > 200 µM | 97.7 µM |  |
| NC1CCC(N(CC(=O)O)CC(=O)O)C(N(CC(=O)O)CC(=O)O)C1 (centres undefined) | > 200 µM | 112 µM |  |

Reference: PubChem BioAssay AID179 (DTP/NCI, 2004)
